Structures are written as SMILES.

The record followed here is US9980943B2, “Methods of treating muscular dystrophy” (BOARD OF REGENTS OF THE NEVADA SYSTEM OF HIGHER EDUCATION, …, priority 2013, dated 2018).

What all share (assay type): cell-based, mouse
Test [1] has as its system α7 integrin (LacZ reporter in α7βgal+/− myoblasts). Description: Myoblast α7+/LacZ integrin FDG assay (Burkin assay in myoblasts, 96-well). The note with it: α7+/LacZ myoblasts, 96-well.
Test [2] deals with α7 integrin (LacZ reporter in α7+/LacZ myotubes). The test can be described thus: Myotube α7 integrin FDG assay (Burkin assay in myotubes, 96-well). The note with it: myotubes.
The subject of test [3] is β-galactosidase in CMV-LacZ C2C12 myoblasts. The test can be described thus: CMV-LacZ secondary screen in C2C12 myoblasts (β-Gal stabilizing assay). The note with it: CMV-LacZ C2C12 myoblasts. In short, it runs like this:
(§1)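 β-Gal level was the read-out, measured in a clonal C2C12 line expressing LacZ from a CMV promoter. Dose-response curves used six concentrations, 0.5 μM up to 40 μM, with duplicate points.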

Test [4] concerns β-galactosidase in CMV-LacZ C2C12 myotubes. The test can be described thus: CMV-LacZ secondary screen in C2C12 myotubes (β-Gal stabilizing assay). The note with it: C2C12 CMV-LacZ myotubes, fold relative to DMSO. In short, it runs like this: as §1

Consider `COc1cc(NC(=O)OCc2ccccc2)c2ncccc2c1` [MLS002667707-01], for which the “Burkin Assay in Myoblasts, signal relative to DMSO” value was found to be 1.0156 in test [1] (0.5 uM); 0.9172 in test [1] (1 uM); 1.02 in test [1] (5 uM); 1.235 in test [1] (10 uM); 0.9347 in test [1] (20 uM); 0.8314 in test [1] (40 uM). Moreover, the “Burkin Assay in Myotubes, α7 integrin LacZ reporter signal relative to DMSO” value is 0.9955 in test [2] (0.5 uM); 1.01 in test [2] (1 uM); 0.8939 in test [2] (5 uM); 0.954 in test [2] (10 uM); 0.8049 in test [2] (20 uM); 0.7617 in test [2] (40 uM). Also, the “CMV-LACZ in Myoblasts (β-galactosidase activity relative to DMSO)” value in test [3] (0.5 uM) is 1.1434; in test [3] (1 uM) it was 0.6763; in test [3] (5 uM) it was 1.1897; in test [3] (10 uM), 1.0803; in test [3] (20 uM), 1.0044; in test [3] (40 uM), 1.1226. For the same compound, the “CMV-LACZ in Myotubes, signal relative to DMSO” value turned out to be 0.8905 in test [4] (0.5 uM); 1.0590 in test [4] (1 uM); 0.9449 in test [4] (5 uM); 1.0227 in test [4] (10 uM); 1.1576 in test [4] (20 uM); 1.1071 in test [4] (40 uM).

For `O=C(NCc1ccccc1)C(c1c(F)cccc1Cl)N(C(=O)c1csnn1)C1CC1` (stereo not drawn) [MLS001221908-01], the “Burkin Assay in Myoblasts, signal relative to DMSO” value stood at 1.051 in test [1] (0.5 uM); 0.9531 in test [1] (1 uM); 0.9306 in test [1] (5 uM); 0.8812 in test [1] (10 uM); 1.433 in test [1] (20 uM); 0.5684 in test [1] (40 uM). Also, the “Burkin Assay in Myotubes, α7 integrin LacZ reporter signal relative to DMSO” value in test [2] (0.5 uM) is recorded as 1.197; in test [2] (1 uM), 0.9589; in test [2] (5 uM), 0.889; in test [2] (10 uM), 0.9693; in test [2] (20 uM) it was 0.818; in test [2] (40 uM) it was 0.7406. Also, the “CMV-LACZ in Myoblasts (β-galactosidase activity relative to DMSO)” value in test [3] (0.5 uM) was 0.9663; in test [3] (1 uM), 0.7607; in test [3] (5 uM) it was 0.9357; in test [3] (10 uM), 0.7908; in test [3] (20 uM), 0.9726; in test [3] (40 uM), 0.6789. Also, the “CMV-LACZ in Myotubes, signal relative to DMSO” value in test [4] (0.5 uM) was 0.8562; in test [4] (1 uM), 0.9171; in test [4] (5 uM) it was 0.9745; in test [4] (10 uM), 1.1838; in test [4] (20 uM) it was 1.0770; in test [4] (40 uM) it was 0.8850.

`Cc1[nH]c2ccc(F)cc2c1CCN(Cc1ccco1)C(=S)NC(C)(C)C` [MLS000419286-01]: the “Burkin Assay in Myoblasts, signal relative to DMSO” value in test [1] (0.5 uM) is 1.166; in test [1] (1 uM), 1.002; in test [1] (5 uM) it was 0.9174; in test [1] (10 uM) it was 0.8951; in test [1] (20 uM), 0.7945; in test [1] (40 uM), 0.7199. Besides, the “Burkin Assay in Myotubes, α7 integrin LacZ reporter signal relative to DMSO” value in test [2] (0.5 uM) is reported as 0.9511; in test [2] (1 uM), 0.8124; in test [2] (5 uM), 0.879; in test [2] (10 uM), 0.948; in test [2] (20 uM), 0.457; in test [2] (40 uM) it was 0.193. For the same compound, the “CMV-LACZ in Myoblasts (β-galactosidase activity relative to DMSO)” value is reported as 0.9960 in test [3] (0.5 uM); 0.7960 in test [3] (1 uM); 0.9701 in test [3] (5 uM); 0.8022 in test [3] (10 uM); 0.9368 in test [3] (20 uM); 0.6295 in test [3] (40 uM). For the same compound, the “CMV-LACZ in Myotubes, signal relative to DMSO” value was 0.9990 in test [4] (0.5 uM); 1.1867 in test [4] (1 uM); 1.0268 in test [4] (5 uM); 1.1581 in test [4] (10 uM); 0.8530 in test [4] (20 uM); 0.7830 in test [4] (40 uM).

Regarding `CCOc1ccccc1Nc1cc2n(c(=O)n1)CCc1cc(OC)c(OC)cc1-2` [MLS001215294-01], the “Burkin Assay in Myoblasts, signal relative to DMSO” value turned out to be 0.9783 in test [1] (0.5 uM); 1.003 in test [1] (1 uM); 0.7641 in test [1] (5 uM); 0.6141 in test [1] (10 uM); 0.2025 in test [1] (20 uM); 0.2046 in test [1] (40 uM). The “Burkin Assay in Myotubes, α7 integrin LacZ reporter signal relative to DMSO” value in test [2] (0.5 uM) was 1.047; in test [2] (1 uM), 1.106; in test [2] (5 uM) it was 0.8935; in test [2] (10 uM), 0.8216; in test [2] (20 uM), 0.8062; in test [2] (40 uM), 0.8079. Further, the “CMV-LACZ in Myoblasts (β-galactosidase activity relative to DMSO)” value in test [3] (0.5 uM) is 1.2983; in test [3] (1 uM), 1.2817; in test [3] (5 uM), 0.8138; in test [3] (10 uM), 1.3412; in test [3] (20 uM) it was 0.3302; in test [3] (40 uM), 0.4116. In addition, the “CMV-LACZ in Myotubes, signal relative to DMSO” value in test [4] (0.5 uM) worked out at 0.8838; in test [4] (1 uM), 1.0800; in test [4] (5 uM) it was 1.1438; in test [4] (10 uM) it was 1.4324; in test [4] (20 uM), 1.2800; in test [4] (40 uM), 1.4470.

With `Cn1cc(CN(CCO)Cc2cccs2)c(-c2ccccc2F)n1` [MLS000732652-01], the “Burkin Assay in Myoblasts, signal relative to DMSO” value is 1.176 in test [1] (0.5 uM); 1.191 in test [1] (1 uM); 0.972 in test [1] (5 uM); 1.2648 in test [1] (10 uM); 1.0346 in test [1] (20 uM); 0.8792 in test [1] (40 uM). The “Burkin Assay in Myotubes, α7 integrin LacZ reporter signal relative to DMSO” value in test [2] (0.5 uM) is listed as 1.092; in test [2] (1 uM) it was 1.116; in test [2] (5 uM), 1.1938; in test [2] (10 uM) it was 1.141; in test [2] (20 uM) it was 0.6797; in test [2] (40 uM), 0.7309. For the same compound, the “CMV-LACZ in Myoblasts (β-galactosidase activity relative to DMSO)” value stood at 0.6700 in test [3] (0.5 uM); 0.7744 in test [3] (1 uM); 1.1327 in test [3] (5 uM); 1.1235 in test [3] (10 uM); 0.9374 in test [3] (20 uM); 0.7856 in test [3] (40 uM). In addition, the “CMV-LACZ in Myotubes, signal relative to DMSO” value is recorded as 1.1615 in test [4] (0.5 uM); 0.8859 in test [4] (1 uM); 1.0614 in test [4] (5 uM); 1.0697 in test [4] (10 uM); 0.8518 in test [4] (20 uM); 1.0329 in test [4] (40 uM).
